Key:
[1] = Pharmacokinetics in rat plasma after oral administration of MO and SMO extract (UPLC-MS/MS); type: in vivo, Sprague-Dawley (SD) rats; details: for Cmax: rat, plasma, po, 40 g/kg; for Cmax / AUC (0-t) / AUC (0-∞) / CL/F / MRT (0-t) / T max / V/F / t1/2z: n = 6
Description: For LC-MS/MS analysis, data acquisition and instrument control were performed using MassLynx 4.1 software (Waters Corp., Milford, MA, USA). The analysis column was an Acquity UPLC HSS T3 column (100 mm × 2.1 mm, 1.8 μm, Waters) with a temperature of 40°C. The mobile phase was acetonitrile containing 0.1% formic acid (A) and 0.1% formic acid aqueous solution (B). The elution gradient was 0.00–0.50 min with 2% B; 0.51–5.00 min with 2%–30% B; and 5.01–7.00 min with 40% B. The flow rate was 0.2 mL/min.
The Waters triple quadruple mass spectrometer (Xevo TQD, Waters Corp., Milford, MA, USA) equipped with an electrospray ionization source (ESI) was used in negative ion mode. The desolvation gas was nitrogen with a flow rate of 500 L/h at a temperature of 250°C. All detected compounds were measured in multiple reaction monitoring (MRM) mode.
10 μL of IS working solution and 400 μL of methanol were added to 100 μL plasma. The solution was vortexed for 10 min and then centrifuged at 12,000 rpm for 5 min. The supernatant was shifted to another centrifugation tube and dried with nitrogen at 37°C. The residue was redissolved in 100 μL acetonitrile and centrifuged for 5 min at 12,000 rpm. Five microliters of supernatant was drawn and analyzed by UPLC-MS/MS.
The SD rats (6, male) were housed at 22 ± 2°C and fasted for 12 h with drinking water available ad libitum. MO and SMO ethanol extract were orally administered at a dose of 40 g/kg (equivalent to 6.44 and 3.95 mg/kg of monotropein, 0.088 and 0.091 mg/kg of rubiadin, and 0.174 and 0.178 mg/kg of rubiadin 1-methyl ether). Blood samples (0.5 mL) were collected from the venous plexus of the eye socket at 0.083, 0.25, 0.5, 1.0, 1.5, 2.0, 2.5, 4.0, 6.0, 12.0, and 24 h under anesthesia. Then, the blood samples were centrifuged at 4500 rpm for 10 min, and then the plasma was immediately transferred to new tubes and stored at −80°C until analysis. The pharmacokinetic parameters were calculated using DAS software (3.0 version, China Food and Drug Administration) based on noncompartmental method. All data were recorded as mean ± SD.

[2] = Stability of the three components in rat plasma and tissues (QC samples); details: n = 5
Description: The preparation of calibration standards was done as follows: The appropriate working solution was spiked into blank plasma or tissues to obtain concentrations of 75∼0.047 μg/mL for monotropein, 396∼1.54 μg/mL for rubiadin, and 596∼1.16 μg/mL for rubiadin 1-methyl ether. The QC concentrations for monotropein were 0.14 μg/mL, 2 μg/mL, and 28.1 μg/mL; for rubiadin, they were 1.6 μg/mL, 50.6 μg/mL, and 712.5 μg/mL; and for rubiadin 1-methyl ether, they were 3.9 μg/mL, 54.6 μg/mL, and 765 μg/mL. The QC samples used for the recovery, matrix effect, intra- and interday accuracy, precision, and stability studies were prepared in the same way as that of the calibration standards. The solutions were stored for one week at −20°C.
The QC samples used for the recovery QC samples were used to judge the stability, and the storage conditions were as follows: (1) freeze-thaw stability, (2) at room temperature for 4 h, and (3) put into the autosampler for 8 h, and (4) at −20°C for 30 days. The permitted range was within 15%.

[3] = male, Sprague-Dawley, oral MO extract 40 g/kg
[4] = male, Sprague-Dawley, oral SMO extract 40 g/kg
[5] = rat kidney, high Conc (rubiadin 4.63, rubiadin 1-methyl ether 3.49, monotropein 28.13 μg/mL)
[6] = rat kidney, low Conc (rubiadin 0.21, rubiadin 1-methyl ether 0.15, monotropein 1.41 μg/mL)
[7] = rat kidney, middle Conc (rubiadin 0.98, rubiadin 1-methyl ether 0.72, monotropein 6.2 μg/mL)
[8] = rat liver, high Conc (rubiadin 4.63, rubiadin 1-methyl ether 3.49, monotropein 28.13 μg/mL)
[9] = rat liver, low Conc (rubiadin 0.21, rubiadin 1-methyl ether 0.15, monotropein 1.41 μg/mL)
[10] = rat liver, middle Conc (rubiadin 0.98, rubiadin 1-methyl ether 0.72, monotropein 6.2 μg/mL)
[11] = rat lung, high Conc (rubiadin 4.63, rubiadin 1-methyl ether 3.49 μg/mL)
[12] = rat lung, low Conc (rubiadin 0.21, rubiadin 1-methyl ether 0.15 μg/mL)
[13] = rat lung, middle Conc (rubiadin 0.98, rubiadin 1-methyl ether 0.72 μg/mL)
[14] = rat plasma, high Conc (rubiadin 712.5, rubiadin 1-methyl ether 765, monotropein 28.1 μg/mL)
[15] = rat plasma, low Conc (rubiadin 3.6, rubiadin 1-methyl ether 3.9, monotropein 0.14 μg/mL)
[16] = rat plasma, middle Conc (rubiadin 50.6, rubiadin 1-methyl ether 54.6, monotropein 2 μg/mL)
[17] = rat small intestine, high Conc (rubiadin 4.63, rubiadin 1-methyl ether 3.49, monotropein 28.13 μg/mL)
[18] = rat small intestine, low Conc (rubiadin 0.21, rubiadin 1-methyl ether 0.15, monotropein 1.41 μg/mL)
[19] = rat small intestine, middle Conc (rubiadin 0.98, rubiadin 1-methyl ether 0.72, monotropein 6.2 μg/mL)

`Cc1c(O)cc2c(c1O)C(=O)c1ccccc1C2=O` [Rubiadin, rubiadin] showed a Tmax ([1]; male, Sprague-Dawley, oral extract 40 g/kg, MO or SMO group not specified) of 1.5 h, a Cmax [1, 3] of 46.7 ± 12.9 ng/mL and a Cmax [1, 4] of 50.2 ± 8.9 ng/mL. For the same molecule, the “AUC (0-t)” value ([1]; oral MO extract 40 g/kg) was 152.252 ± 7.098 μg/L ∗ h, the “AUC (0-∞)” value ([1]; oral MO extract 40 g/kg) was 153.816 ± 7.169 μg/L ∗ h and the CL/F ([1]; oral MO extract 40 g/kg) was 0.261 ± 0.012 L/g/h. For the same molecule, the “MRT (0-t)” value ([1]; oral MO extract 40 g/kg) was 6.062 ± 0.272 H, the T max ([1]; oral MO extract 40 g/kg) was 1.5 ± 0.00 H and the V/F ([1]; oral MO extract 40 g/kg) was 1.442 ± 0.090 L/g. For the same molecule, the t1/2z ([1]; oral MO extract 40 g/kg) was 3.838 ± 0.196 H, the “AUC (0-t)” value ([1]; oral SMO extract 40 g/kg) was 169.355 ± 8.836 μg/L ∗ h and the “AUC (0-∞)” value ([1]; oral SMO extract 40 g/kg) was 176.441 ± 18.283 μg/L ∗ h. For the same molecule, the CL/F ([1]; oral SMO extract 40 g/kg) was 0.228 ± 0.022 L/g/h, the “MRT (0-t)” value ([1]; oral SMO extract 40 g/kg) was 5.89 ± 0.265 H and the T max ([1]; oral SMO extract 40 g/kg) was 1.5 ± 0.00 H. The V/F ([1]; oral SMO extract 40 g/kg) was 1.579 ± 0.842 L/g, the t1/2z ([1]; oral SMO extract 40 g/kg) was 5.006 ± 3.383 H and the “Cmax and AUC0-t, SMO groups compared with the MO group” value ([1]; oral extract 40 g/kg) was “elevated remarkably”.

For `COc1c(C)c(O)cc2c1C(=O)c1ccccc1C2=O` [Rubiadin 1-methyl ether, rubiadin 1-methyl ether], the “Cmax compared among the three components” value ([1]; especially in the SMO groups) was “the highest”, the Cmax [1, 3] was 432 ± 37 ng/mL and the Cmax [1, 4] was 509 ± 35.1 ng/mL. The “AUC (0-t)” value ([1]; oral MO extract 40 g/kg) was 1059.49 ± 98.081 μg/L ∗ h, the “AUC (0-∞)” value ([1]; oral MO extract 40 g/kg) was 1074.351 ± 102.019 μg/L ∗ h and the CL/F ([1]; oral MO extract 40 g/kg) was 0.037 ± 0.372 L/g/h. For the same molecule, the “MRT (0-t)” value ([1]; oral MO extract 40 g/kg) was 2.908 ± 0.151 H, the T max ([1]; oral MO extract 40 g/kg) was 0.5 ± 0.00 H and the V/F ([1]; oral MO extract 40 g/kg) was 0.287 ± 0.067 L/g. For the same molecule, the t1/2z ([1]; oral MO extract 40 g/kg) was 5.379 ± 1.514 H, the “AUC (0-t)” value ([1]; oral SMO extract 40 g/kg) was 1244.329 ± 82.805 μg/L ∗ h and the “AUC (0-∞)” value ([1]; oral SMO extract 40 g/kg) was 1253.526 ± 84.691 μg/L ∗ h. For the same molecule, the CL/F ([1]; oral SMO extract 40 g/kg) was 0.032 ± 0.210 L/g/h, the “MRT (0-t)” value ([1]; oral SMO extract 40 g/kg) was 2.855 ± 0.15 H and the T max ([1]; oral SMO extract 40 g/kg) was 0.5 ± 0.00 H. The V/F ([1]; oral SMO extract 40 g/kg) was 0.196 ± 0.363 L/g, the t1/2z ([1]; oral SMO extract 40 g/kg) was 4.27 ± 0.865 H and the “Cmax and AUC0-t, SMO groups compared with the MO group” value ([1]; oral extract 40 g/kg) was “elevated remarkably”. The “Stability RE%, At 25°C for 12 h” value [2, 5] was −3.58%, the “Stability RE%, Autosampler at 4°C for 24 h” value (“Stability RE%, Autosampler” below) [2, 5] was −0.36% and the “Stability RE%, Freeze–thaw cycles” value [2, 5] was −1.57%. For the same molecule, the “Stability RE%, −20°C for 30 days” value [2, 5] was 0.54%, the “Stability RE%, At 25°C for 12 h” value [2, 6] was 0.35% and the “Stability RE%, Autosampler” value [2, 6] was −0.36%. The “Stability RE%, Freeze–thaw cycles” value [2, 6] was 0.15%, the “Stability RE%, −20°C for 30 days” value [2, 6] was −5.1% and the “Stability RE%, At 25°C for 12 h” value [2, 7] was 0.24%. The “Stability RE%, Autosampler” value [2, 7] was −0.68%, the “Stability RE%, Freeze–thaw cycles” value [2, 7] was −0.54% and the “Stability RE%, −20°C for 30 days” value [2, 7] was −2.49%. The “Stability RE%, At 25°C for 12 h” value [2, 8] was 0.42%, the “Stability RE%, Autosampler” value [2, 8] was −0.66% and the “Stability RE%, Freeze–thaw cycles” value [2, 8] was −0.68%. For the same molecule, the “Stability RE%, −20°C for 30 days” value [2, 8] was −2.58%, the “Stability RE%, At 25°C for 12 h” value [2, 9] was −2.1% and the “Stability RE%, Autosampler” value [2, 9] was 0.54%. The “Stability RE%, Freeze–thaw cycles” value [2, 9] was −1.52%, the “Stability RE%, −20°C for 30 days” value [2, 9] was −0.58% and the “Stability RE%, At 25°C for 12 h” value [2, 10] was −3.42%. The “Stability RE%, Autosampler” value [2, 10] was −3.81%, the “Stability RE%, Freeze–thaw cycles” value [2, 10] was −5.42% and the “Stability RE%, −20°C for 30 days” value [2, 10] was −0.45%. For the same molecule, the “Stability RE%, At 25°C for 12 h” value [2, 11] was −0.06%, the “Stability RE%, Autosampler” value [2, 11] was −2.42% and the “Stability RE%, Freeze–thaw cycles” value [2, 11] was −0.53%. For the same molecule, the “Stability RE%, −20°C for 30 days” value [2, 11] was 0.05%, the “Stability RE%, At 25°C for 12 h” value [2, 12] was −0.57% and the “Stability RE%, Autosampler” value [2, 12] was −8.51%. For the same molecule, the “Stability RE%, Freeze–thaw cycles” value [2, 12] was −2.57%, the “Stability RE%, −20°C for 30 days” value [2, 12] was −1.54% and the “Stability RE%, At 25°C for 12 h” value [2, 13] was −5.71%. For the same molecule, the “Stability RE%, Autosampler” value [2, 13] was −0.65%, the “Stability RE%, Freeze–thaw cycles” value [2, 13] was −4.85% and the “Stability RE%, −20°C for 30 days” value [2, 13] was −0.55%. For the same molecule, the “Stability RE%, At 25°C for 12 h” value [2, 14] was −5.1%, the “Stability RE%, Autosampler” value [2, 14] was −3.14% and the “Stability RE%, Freeze–thaw cycles” value [2, 14] was −3.71%. For the same molecule, the “Stability RE%, −20°C for 30 days” value [2, 14] was −0.86%, the “Stability RE%, At 25°C for 12 h” value [2, 15] was −1.79% and the “Stability RE%, Autosampler” value [2, 15] was −1.49%. The “Stability RE%, Freeze–thaw cycles” value [2, 15] was −0.94%, the “Stability RE%, −20°C for 30 days” value [2, 15] was −3.26% and the “Stability RE%, At 25°C for 12 h” value [2, 16] was −4.21%. The “Stability RE%, Autosampler” value [2, 16] was −1.65%, the “Stability RE%, Freeze–thaw cycles” value [2, 16] was −1.35% and the “Stability RE%, −20°C for 30 days” value [2, 16] was −0.23%. The “Stability RE%, At 25°C for 12 h” value [2, 17] was 0.25%, the “Stability RE%, Autosampler” value [2, 17] was 0.48% and the “Stability RE%, Freeze–thaw cycles” value [2, 17] was −0.74%. The “Stability RE%, −20°C for 30 days” value [2, 17] was 1.35%, the “Stability RE%, At 25°C for 12 h” value [2, 18] was −0.69% and the “Stability RE%, Autosampler” value [2, 18] was −0.42%. The “Stability RE%, Freeze–thaw cycles” value [2, 18] was −6.57%, the “Stability RE%, −20°C for 30 days” value [2, 18] was −1.25% and the “Stability RE%, At 25°C for 12 h” value [2, 19] was −0.85%. For the same molecule, the “Stability RE%, Autosampler” value [2, 19] was −0.62%, the “Stability RE%, Freeze–thaw cycles” value [2, 19] was −0.57% and the “Stability RE%, −20°C for 30 days” value [2, 19] was −0.25%.
